{"source": "paper doi:10.1101/2021.04.08.439011v1", "about": "(biorxiv, 2021)", "conditions_in_all_cases": "1 µM; binder", "key": {"ABL1-nonphosphorylated": {"biological_target": "ABL1-nonphosphorylated (Homo sapiens, UniProt P00519)", "sequence (P00519 whole entry)": "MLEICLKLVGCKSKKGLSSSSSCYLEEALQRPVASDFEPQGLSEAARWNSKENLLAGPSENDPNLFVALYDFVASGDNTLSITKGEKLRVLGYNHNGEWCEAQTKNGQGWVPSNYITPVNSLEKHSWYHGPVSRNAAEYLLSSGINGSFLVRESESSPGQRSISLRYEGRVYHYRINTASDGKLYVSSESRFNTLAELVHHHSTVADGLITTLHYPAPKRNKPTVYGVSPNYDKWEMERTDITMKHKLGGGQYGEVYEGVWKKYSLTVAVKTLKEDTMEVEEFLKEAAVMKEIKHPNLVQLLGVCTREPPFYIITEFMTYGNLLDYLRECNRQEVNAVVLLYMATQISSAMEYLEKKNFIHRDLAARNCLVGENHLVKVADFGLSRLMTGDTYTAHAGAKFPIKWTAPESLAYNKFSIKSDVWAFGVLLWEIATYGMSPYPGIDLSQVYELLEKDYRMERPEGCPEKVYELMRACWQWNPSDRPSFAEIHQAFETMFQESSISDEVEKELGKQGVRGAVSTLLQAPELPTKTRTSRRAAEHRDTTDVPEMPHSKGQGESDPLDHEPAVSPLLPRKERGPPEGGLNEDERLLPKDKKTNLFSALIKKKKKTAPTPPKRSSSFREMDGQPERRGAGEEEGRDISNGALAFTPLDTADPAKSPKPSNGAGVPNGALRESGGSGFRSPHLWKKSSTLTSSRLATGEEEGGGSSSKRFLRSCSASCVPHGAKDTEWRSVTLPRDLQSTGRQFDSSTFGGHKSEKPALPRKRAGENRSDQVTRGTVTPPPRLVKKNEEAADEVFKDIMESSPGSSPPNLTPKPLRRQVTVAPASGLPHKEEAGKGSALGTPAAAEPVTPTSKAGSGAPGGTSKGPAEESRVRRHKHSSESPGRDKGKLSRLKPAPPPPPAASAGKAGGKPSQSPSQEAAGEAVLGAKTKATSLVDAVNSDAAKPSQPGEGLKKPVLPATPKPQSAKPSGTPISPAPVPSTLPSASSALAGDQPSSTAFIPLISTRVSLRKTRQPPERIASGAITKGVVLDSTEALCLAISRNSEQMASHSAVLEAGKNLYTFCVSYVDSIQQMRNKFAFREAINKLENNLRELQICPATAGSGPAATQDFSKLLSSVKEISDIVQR"}, "ABL2": {"biological_target": "ABL2 (Homo sapiens, UniProt P42684)"}, "BMPR1B": {"biological_target": "BMPR1B (Homo sapiens, UniProt O00238)"}, "CDK9": {"biological_target": "CDK9 (Homo sapiens, UniProt P50750)"}, "CDKL2": {"biological_target": "CDKL2 (Homo sapiens, UniProt Q92772)"}, "CSF1R": {"biological_target": "CSF1R (Homo sapiens, UniProt P07333)"}, "CSNK1G3": {"biological_target": "CSNK1G3 (Homo sapiens, UniProt Q9Y6M4)", "sequence (Q9Y6M4 whole entry)": "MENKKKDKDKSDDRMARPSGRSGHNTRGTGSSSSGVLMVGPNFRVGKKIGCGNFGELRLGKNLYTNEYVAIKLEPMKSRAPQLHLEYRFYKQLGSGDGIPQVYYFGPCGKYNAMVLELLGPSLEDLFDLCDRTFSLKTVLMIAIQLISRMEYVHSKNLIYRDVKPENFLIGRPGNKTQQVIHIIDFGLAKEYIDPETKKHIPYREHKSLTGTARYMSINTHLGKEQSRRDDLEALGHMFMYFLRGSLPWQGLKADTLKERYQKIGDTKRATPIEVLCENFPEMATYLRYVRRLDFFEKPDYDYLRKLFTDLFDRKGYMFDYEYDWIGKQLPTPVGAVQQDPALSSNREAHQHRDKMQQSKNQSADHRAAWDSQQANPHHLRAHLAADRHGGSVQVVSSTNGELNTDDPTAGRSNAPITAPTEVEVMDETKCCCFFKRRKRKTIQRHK"}, "FLT1": {"biological_target": "FLT1 (Homo sapiens, UniProt P17948)"}, "GRK4": {"biological_target": "GRK4 (Homo sapiens, UniProt P32298)"}, "GSK3A": {"biological_target": "GSK3A (Homo sapiens, UniProt P49840)"}, "IRAK3": {"biological_target": "IRAK3 (Homo sapiens, UniProt Q9Y616)", "sequence (Q9Y616 whole entry)": "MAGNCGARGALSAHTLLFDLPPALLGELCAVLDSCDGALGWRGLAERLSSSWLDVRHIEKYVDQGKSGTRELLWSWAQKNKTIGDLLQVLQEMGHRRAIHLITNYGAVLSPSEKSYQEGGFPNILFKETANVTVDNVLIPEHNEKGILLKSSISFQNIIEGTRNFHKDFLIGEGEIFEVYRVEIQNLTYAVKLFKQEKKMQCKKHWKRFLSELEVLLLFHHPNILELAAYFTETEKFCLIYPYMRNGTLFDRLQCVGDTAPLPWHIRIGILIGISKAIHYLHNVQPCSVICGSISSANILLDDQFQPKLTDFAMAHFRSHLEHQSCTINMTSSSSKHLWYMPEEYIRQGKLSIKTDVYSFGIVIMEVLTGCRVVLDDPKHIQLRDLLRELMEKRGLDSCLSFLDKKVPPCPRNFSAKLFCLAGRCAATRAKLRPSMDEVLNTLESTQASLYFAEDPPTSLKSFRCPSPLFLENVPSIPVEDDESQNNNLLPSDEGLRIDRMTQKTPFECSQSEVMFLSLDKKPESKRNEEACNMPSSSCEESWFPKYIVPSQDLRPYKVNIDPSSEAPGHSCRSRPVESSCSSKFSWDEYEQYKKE"}, "LIMK2": {"biological_target": "LIMK2 (Homo sapiens, UniProt P53671)"}, "MAP3K1": {"biological_target": "MAP3K1 (Homo sapiens, UniProt Q13233)"}, "MST1R": {"biological_target": "MST1R (Homo sapiens, UniProt Q04912)"}, "MYLK2": {"biological_target": "MYLK2 (Homo sapiens, UniProt Q9H1R3)"}, "PAK2": {"biological_target": "PAK2 (Homo sapiens, UniProt Q13177)"}, "PCTK3": {"biological_target": "PCTK3 (Homo sapiens, UniProt Q07002)"}, "PIK3CA(E545K)": {"biological_target": "PIK3CA(E545K) (Homo sapiens, UniProt P42336, E545K)", "sequence (P42336 whole entry E545K)": "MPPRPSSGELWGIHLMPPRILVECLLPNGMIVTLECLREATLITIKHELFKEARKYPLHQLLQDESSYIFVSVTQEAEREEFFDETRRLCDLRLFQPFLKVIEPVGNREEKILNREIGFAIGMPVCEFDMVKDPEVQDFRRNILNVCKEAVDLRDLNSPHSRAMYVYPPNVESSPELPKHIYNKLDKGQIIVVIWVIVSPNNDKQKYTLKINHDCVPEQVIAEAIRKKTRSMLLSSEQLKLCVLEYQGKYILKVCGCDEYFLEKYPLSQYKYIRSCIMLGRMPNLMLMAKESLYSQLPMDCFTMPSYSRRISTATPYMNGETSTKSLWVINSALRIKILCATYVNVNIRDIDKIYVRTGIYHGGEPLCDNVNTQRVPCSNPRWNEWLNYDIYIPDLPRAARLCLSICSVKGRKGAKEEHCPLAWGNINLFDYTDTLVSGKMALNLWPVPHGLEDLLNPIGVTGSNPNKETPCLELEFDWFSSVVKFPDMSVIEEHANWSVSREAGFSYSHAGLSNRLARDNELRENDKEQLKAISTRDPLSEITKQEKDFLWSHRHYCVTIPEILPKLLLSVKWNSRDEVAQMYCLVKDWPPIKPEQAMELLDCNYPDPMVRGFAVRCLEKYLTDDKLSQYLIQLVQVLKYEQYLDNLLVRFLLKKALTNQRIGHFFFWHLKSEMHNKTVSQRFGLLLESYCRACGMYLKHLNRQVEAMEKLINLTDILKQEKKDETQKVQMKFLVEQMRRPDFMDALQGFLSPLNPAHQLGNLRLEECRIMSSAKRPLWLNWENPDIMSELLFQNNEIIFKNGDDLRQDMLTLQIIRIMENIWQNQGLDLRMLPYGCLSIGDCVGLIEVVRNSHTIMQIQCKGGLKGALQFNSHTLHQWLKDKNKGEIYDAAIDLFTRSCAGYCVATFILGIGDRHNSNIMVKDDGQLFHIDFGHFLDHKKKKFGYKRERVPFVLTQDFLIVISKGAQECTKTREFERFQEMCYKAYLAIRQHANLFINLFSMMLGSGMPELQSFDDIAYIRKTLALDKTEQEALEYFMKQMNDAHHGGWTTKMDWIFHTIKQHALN"}, "PIKFYVE": {"biological_target": "PIKFYVE (Homo sapiens, UniProt Q9Y2I7)"}, "PIP4K2B": {"biological_target": "PIP4K2B (Homo sapiens, UniProt P78356)"}, "PKAC-alpha": {"biological_target": "PKAC-alpha (Homo sapiens, UniProt P17612)"}, "PKAC-beta": {"biological_target": "PKAC-beta (Homo sapiens, UniProt P22694)"}, "PLK4": {"biological_target": "PLK4 (Homo sapiens, UniProt O00444)"}, "PRKG1": {"biological_target": "PRKG1 (Homo sapiens, UniProt Q13976)"}, "RAF1": {"biological_target": "RAF1 (Homo sapiens, UniProt P04049)"}, "RIOK3": {"biological_target": "RIOK3 (Homo sapiens, UniProt O14730)"}, "STK36": {"biological_target": "STK36 (Homo sapiens, UniProt Q9NRP7)"}, "TIE2": {"biological_target": "TIE2 (Homo sapiens, UniProt Q02763)"}, "TLK2": {"biological_target": "TLK2 (Homo sapiens, UniProt Q86UE8)", "sequence (Q86UE8 whole entry)": "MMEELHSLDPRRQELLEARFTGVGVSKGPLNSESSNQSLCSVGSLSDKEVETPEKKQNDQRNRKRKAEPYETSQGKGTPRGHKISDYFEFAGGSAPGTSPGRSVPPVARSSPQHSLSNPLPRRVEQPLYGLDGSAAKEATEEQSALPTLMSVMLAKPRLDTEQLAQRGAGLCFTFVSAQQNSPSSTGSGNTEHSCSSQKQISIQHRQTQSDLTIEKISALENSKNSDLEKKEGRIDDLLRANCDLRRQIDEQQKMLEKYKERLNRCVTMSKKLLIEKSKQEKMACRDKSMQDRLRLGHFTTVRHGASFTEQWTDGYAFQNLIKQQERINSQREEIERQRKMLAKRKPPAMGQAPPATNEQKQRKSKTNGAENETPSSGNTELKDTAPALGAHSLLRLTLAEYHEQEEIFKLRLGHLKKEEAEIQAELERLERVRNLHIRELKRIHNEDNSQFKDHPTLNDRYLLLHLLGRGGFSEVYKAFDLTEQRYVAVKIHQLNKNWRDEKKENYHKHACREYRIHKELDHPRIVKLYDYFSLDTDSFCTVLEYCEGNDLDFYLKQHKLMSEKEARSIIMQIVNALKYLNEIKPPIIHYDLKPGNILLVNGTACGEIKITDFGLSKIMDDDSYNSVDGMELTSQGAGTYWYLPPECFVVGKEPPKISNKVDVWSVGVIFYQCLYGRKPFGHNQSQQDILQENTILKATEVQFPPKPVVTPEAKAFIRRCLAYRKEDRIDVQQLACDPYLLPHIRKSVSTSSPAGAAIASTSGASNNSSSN"}, "TNK2": {"biological_target": "TNK2 (Homo sapiens, UniProt Q07912)", "sequence (Q07912 whole entry)": "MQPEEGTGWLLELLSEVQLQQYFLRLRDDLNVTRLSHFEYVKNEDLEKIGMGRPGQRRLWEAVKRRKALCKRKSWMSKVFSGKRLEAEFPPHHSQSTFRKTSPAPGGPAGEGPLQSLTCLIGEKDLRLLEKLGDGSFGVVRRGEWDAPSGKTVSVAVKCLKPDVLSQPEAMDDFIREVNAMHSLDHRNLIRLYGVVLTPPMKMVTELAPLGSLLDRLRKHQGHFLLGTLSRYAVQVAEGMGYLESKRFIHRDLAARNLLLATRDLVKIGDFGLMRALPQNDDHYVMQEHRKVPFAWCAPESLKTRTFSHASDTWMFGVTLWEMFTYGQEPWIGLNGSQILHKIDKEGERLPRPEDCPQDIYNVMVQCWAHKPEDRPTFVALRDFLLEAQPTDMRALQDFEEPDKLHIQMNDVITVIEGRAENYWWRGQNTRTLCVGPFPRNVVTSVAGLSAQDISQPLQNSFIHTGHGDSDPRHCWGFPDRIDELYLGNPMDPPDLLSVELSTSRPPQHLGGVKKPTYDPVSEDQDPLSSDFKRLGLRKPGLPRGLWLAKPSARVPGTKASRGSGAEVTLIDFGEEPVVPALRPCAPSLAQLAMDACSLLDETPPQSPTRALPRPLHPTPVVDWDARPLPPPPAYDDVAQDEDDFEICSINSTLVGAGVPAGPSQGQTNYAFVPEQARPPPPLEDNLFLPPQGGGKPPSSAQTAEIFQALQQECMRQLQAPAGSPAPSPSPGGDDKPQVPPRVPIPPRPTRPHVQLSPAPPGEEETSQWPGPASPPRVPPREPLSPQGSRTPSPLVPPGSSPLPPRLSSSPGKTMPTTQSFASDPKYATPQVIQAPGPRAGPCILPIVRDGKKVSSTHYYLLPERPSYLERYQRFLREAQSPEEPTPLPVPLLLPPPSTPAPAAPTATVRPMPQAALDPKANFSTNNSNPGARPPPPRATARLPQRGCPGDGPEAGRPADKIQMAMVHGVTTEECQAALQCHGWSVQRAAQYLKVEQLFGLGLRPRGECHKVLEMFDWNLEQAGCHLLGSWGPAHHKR"}, "TRKA": {"biological_target": "TRKA (Homo sapiens, UniProt P04629)"}}, "data": [{"smiles": "CNc1ncc2cc(-c3ccc(-c4cccc(C)n4)cc3Cl)c(=O)n(C[C@H]3OC[C@H](N)CO3)c2n1", "note": "[compound 6, G-5555]", "values": [{"measurement": "Percent Control", "setting": "ABL1-nonphosphorylated", "result": 85, "unit": "%"}, {"measurement": "Percent Control", "setting": "ABL2", "result": 100, "unit": "%"}, {"measurement": "Percent Control", "setting": "BMPR1B", "result": 96, "unit": "%"}, {"measurement": "Percent Control", "setting": "CDK9", "result": 100, "unit": "%"}, {"measurement": "Percent Control", "setting": "CDKL2", "result": 58, "unit": "%"}, {"measurement": "Percent Control", "setting": "CSF1R", "result": 92, "unit": "%"}, {"measurement": "Percent Control", "setting": "CSNK1G3", "result": 100, "unit": "%"}, {"measurement": "Percent Control", "setting": "FLT1", "result": 100, "unit": "%"}, {"measurement": "Percent Control", "setting": "GRK4", "result": 100, "unit": "%"}, {"measurement": "Percent Control", "setting": "GSK3A", "result": 100, "unit": "%"}, {"measurement": "Percent Control", "setting": "IRAK3", "result": 92, "unit": "%"}, {"measurement": "Percent Control", "setting": "LIMK2", "result": 100, "unit": "%"}, {"measurement": "Percent Control", "setting": "MAP3K1", "result": 98, "unit": "%"}, {"measurement": "Percent Control", "setting": "MST1R", "result": 48, "unit": "%"}, {"measurement": "Percent Control", "setting": "MYLK2", "result": 81, "unit": "%"}, {"measurement": "Percent Control", "setting": "PAK2", "result": 0, "unit": "%"}, {"measurement": "Percent Control", "setting": "PCTK3", "result": 100, "unit": "%"}, {"measurement": "Percent Control", "setting": "PIK3CA(E545K)", "result": 97, "unit": "%"}, {"measurement": "Percent Control", "setting": "PIKFYVE", "result": 100, "unit": "%"}, {"measurement": "Percent Control", "setting": "PIP4K2B", "result": 87, "unit": "%"}, {"measurement": "Percent Control", "setting": "PKAC-alpha", "result": 100, "unit": "%"}, {"measurement": "Percent Control", "setting": "PKAC-beta", "result": 95, "unit": "%"}, {"measurement": "Percent Control", "setting": "PLK4", "result": 67, "unit": "%"}, {"measurement": "Percent Control", "setting": "PRKG1", "result": 100, "unit": "%"}, {"measurement": "Percent Control", "setting": "RAF1", "result": 100, "unit": "%"}, {"measurement": "Percent Control", "setting": "RIOK3", "result": 90, "unit": "%"}, {"measurement": "Percent Control", "setting": "STK36", "result": 2.9, "unit": "%"}, {"measurement": "Percent Control", "setting": "TIE2", "result": 52, "unit": "%"}, {"measurement": "Percent Control", "setting": "TLK2", "result": 100, "unit": "%"}, {"measurement": "Percent Control", "setting": "TNK2", "result": 86, "unit": "%"}, {"measurement": "Percent Control", "setting": "TRKA", "result": 64, "unit": "%"}]}]}
